Data: US12594292B2, “Antiviral prodrugs, intermediate-and long-acting formulations and methods” (priority 2022, dated 2026)
Like-named read-outs stand apart in the source and are kept apart here.

How the values were obtained:
[1] = system: SARS-CoV-2 isolate USA-WA1/2020; experiment: SARS-CoV-2 infection in PSC-human lung cells, qRT-PCR (Example 7); type: cell-based
Calu-3 cells = experiment: Cell viability assay CellTiter-Glo, Calu-3 cells (Example 7); details: Calu-3 cells, CellTiter-Glo
HCoV-229E = type: cell-based, human Coronavirus 229E
VERO E6 cells [2] = experiment: CellTiter-Glo luminescent cell viability assay, Vero E6 (Example 3); type: cell-based
Method: (§1) CellTiter-glo luminescent cell viability assay: Approximately 10^4 Vero E6 cells per well were seeded in opaque walled 96 well cell culture plates and incubated overnight. Compounds or controls were added at the indicated concentrations. […] Viability was calculated compared to untreated controls and CC50 values were calculated using Prism 8.
(§2) Determination of Cytotoxicity: The 50% cytotoxic concentrations (CC50) were determined with Cell Titer Glo (Cat. #G7570, Promega, Madison, WI) according to the manufacturer's instructions. The calculated CC50 values are shown in the foregoing table.
(§3) Relative viability was measured by CellTiter-Glo luminescent cell viability assay, as depicted at FIG. 2.

Huh7.5 cells [3] = experiment: Cell viability assay CellTiter-Glo, Huh7.5 cells (Example 7)
VERO E6 cells [4] = experiment: Cell viability assay CellTiter-Glo, Vero E6 cells (Example 7)
[5] = system: SARS-CoV-2 isolate USA-WA1/2020; experiment: SARS-CoV-2 infection in Calu-3 cells, qRT-PCR (Example 7); type: cell-based
Huh7.5 cells [6] = experiment: Cytotoxicity in Huh7.5 cells, nuclei count (Example 6); type: cell-based, human
PSC-human lung cells = experiment: Cell viability assay CellTiter-Glo, PSC-human lung cells (Example 7)
[7] = system: SARS-CoV-2 isolate USA-WA1/2020; experiment: SARS-CoV-2 infection in Vero E6 cells, qRT-PCR (Example 7); type: cell-based; details: for Selectivity: CC50/EC50, Vero E6 cells; for EC50 / EC90: Vero E6 cells, MOI 0.01, 48 hours
Caco-2 cells = experiment: Cell viability assay CellTiter-Glo, Caco-2 cells (Example 7); details: Caco-2 cells, CellTiter-Glo
[8] = system: USA WA-01 strain of SARS CoV-2; experiment: Anti-coronavirus activity in Vero E6 cells, qPCR of spike RNA (Example 2); type: cell-based
Method: (§4) Ten thousand Vero E6 cells were seeded in 100 microliters of culture medium in 96 well plates. The following day serial two-fold dilutions of antiviral compounds or the DMSO-containing vehicle were added to each well. The USA WA-01 strain of SARS CoV-2 was added to each well at a multiplicity of infection of 0.1 thirty minutes later. Cells were incubated for 48 hours, washed twice in PBS and lysed with TRIzol. RNA was extracted using Directzol micro RNA columns. RNA was made into cDNA and assayed for the SARS CoV-2 spike protein and for a housekeeping gene (RPLPO) RNA by qPCR. Data represents the average of duplicate wells. Cellular cytotoxicity was also measured in VERO E6 cells. […] Cytotoxicity (CC50) was assessed using a commercially available MTT assay.

[9] = system: SARS-CoV-2 isolate USA-WA1/2020; experiment: SARS-CoV-2 infection in Caco-2 cells, qRT-PCR (Example 7); type: cell-based
VERO E6 cells [10] = experiment: Cellular cytotoxicity in Vero E6 cells, MTT assay (Example 2); type: cell-based
Method: as §4

[11] = system: SARS-CoV-2 isolate USA-WA1/2020; experiment: SARS-CoV-2 infection in Huh7.5 cells, qRT-PCR (Example 7); type: cell-based; details: for Selectivity: CC50/EC50, Huh7.5 cells
[12] = system: SARS-CoV-2 isolate USA-WA1/2020; experiment: SARS-CoV-2 infection in Vero E6 cells, qRT-PCR of Spike RNA (Example 3); type: cell-based
HFF cells = experiment: Persistence of TFVpp in HFF cells after a 3 day exposure
Source text: HFF cells were exposed to 1 micromolar drug for 3 days. At days 0, 1, 2, 4, 7, 14, 21, and 28, cells were trypsinized, counted, and processed for LC/MS measurement of TFVpp. Data were expressed at ftg/cell. nm=not meaningful; ftg—gemtogram.

HIV-1 [13] = details: for EC50: HIV infected human PBMCs
Method: Antiviral activities were determined in HIV infected human PBMCs.

[14] = 42 day pharmacokinetic study after a single IM administration in rats, formulations F3, F4, F7, F8; type: in vivo; details: for time with plasma levels at a virally significant level: rats, IM, only the 100 mg/kg dose, formulation F3
Method: Comparison of Formulations F3, F4, F7 and F8 following a single IM administration in rats—Groups: Vehicle control, 10 mg/kg, 30 mg/kg and 100 mg/kg of formulations 3, 4, 7, 8.
Procedure: At time zero rats were injected intramuscularly with 100 microliters of vehicle and formulations as noted. […] Blood was obtained at 6, 24 and 48 hours, and at 7, 14, 28, 35 and 42 days and the plasma levels of ODE-Bn-TFV and ODE-TFV (the first metabolite, also an active anti-HIV compound) were determined by LC/MS/MS.
A 42 days pharmacokinetic study of formulations 3, 4, 7, and 8 of this example in rats was conducted. In the study, 100, 30, and 10 mg/kg of each formulation was administered by intramuscular (IM) injection to male Sprague Dawley rates (100 microliters). […] The rats were subjected to twice weekly clinical observations, and weights were collected.

human PBMCs = experiment: Cytotoxicity (CC50) in human PBMCs; type: cell-based
HIV-1 [15] = details: Beadle et al. Antiviral Res. 2019; cited from earlier work
VERO E6 cells [16] = experiment: Generation of remdesivir triphosphate in Vero E6 cells (LC/MS/MS); type: in vitro ADME; details: 1 micromolar drug, up to 48 hours
Method: In this example, Vero E6 cells were plated in 6 well plates at about 3.4×10^5 cells per well in 2 mL of media (DMEM, 10% FBS).
Cells were then incubated at 37° C. for 24 hours. Media was then aspirated and replaced with 2 mL of control media (fresh Dulbecco's Modified Eagle's Medium (DMEM), 10% FBS) or 2 mL of media with drug at a concentration of 1 μM. Cell were incubated with the various drugs for 48 hours. The media was aspirated, the cells rinsed twice with phosphate-buffered saline (PBS), trypsinized for 5 minutes with 1 mL ATV, triturated and removed to a 15 mL centrifuge tube, rinsed with 1 mL PBS, which was also then removed to the 15 mL centrifuge tube, and the cells were triturated again. Cells were counted in a Reichert hemocytometer using two 10 μL samples, and the number of cells in each sample was determined.
Cells were centrifuged at 1200 rpm for 10 minutes, diluent aspirated and the pellet resuspended in 250 μL of methanol/distilled water (70/30) and analyzed by LC/MS/MS. The results, which are depicted at FIG. 3, were in picomoles/10^6 cells and were the average of two or three determinations.

in vitro = details: human
Method: Cells were infected with 229E for 2 hours followed by treatment with the indicated dose of the indicated drug for 72 hours. The relative CPE was determined by measuring cell viability using an MTT assay. depicts the cytotoxicity in MRC-5 cells incubated in the presence of the indicated drug at the indicated concentration for 72 hours, after which cell viability was measured by the CellTiter-Glo assay. Data points indicate the averages from 3 independent experiments performed in duplicate. Error bars represent the standard error mean (SEM).

[17] = after intravenous infusion, reported; cited from earlier work
[18] = Cell viability assay CellTiter-Glo, Calu-3 cells (Example 7); details: human
[19] = CellTiter-Glo luminescent cell viability assay, Vero E6 (Example 3); type: cell-based; details: African green monkey; Vero E6 cells, Cell Titer Glo, 48.5 hours; read-out: CC50
Method: as §1, §2, §3

[20] = Cell viability assay CellTiter-Glo, Caco-2 cells (Example 7); details: human
[21] = reported, Siegel et al. 2017; cited from earlier work
[22] = Cellular cytotoxicity in Vero E6 cells, MTT assay (Example 2); type: cell-based; details: African green monkey
Method: as §4

[23] = parameters: species or system beagle dogs; details: dog, in vivo
Method: Canine Pharmacokinetics of ODE-Bn-TFV in Formulation F3—A 30 day study in beagle dogs was done with 30 mg/kg IM doses of ODE-Bn-TFV in formulation F3.

[24] = rat, in vivo
Method: Maximal volume IM injections of 100 microliters were given at day 0, 30 and 60 to groups of 3 rats. There were 3 groups of control animals who received monthly injections of F3 vehicle. […] Weights were assessed over the 3-month period. […] Because a constant (maximal) IM volume of 100 microliters was given, the initial dose was 90 mg/kg and the two following injections at days 30 and 60 were lower, 62 mg/kg, due to weight increases of the rats.

[25] = Vero E6 cells, MOI 0.1, 48 hours
[26] = Caco-2 cells, MOI 0.01, 48 hours
[27] = Huh7.5 cells, MOI 0.01, 48 hours, qRT-PCR (Example 7)
[28] = Vero E6 cells, MOI 0.01, 48 hours, mean±SD
[29] = Severe acute respiratory syndrome coronavirus 2, Vero C1008

CCCCCCCCCCCCCCCCCCOCCOP(=O)(O)OC[C@H]1O[C@@](C#N)(c2ccc3c(N)ncnn23)[C@H](O)[C@@H]1O [Compound 4c, 2-(Octadecyloxy)ethyl-phospho-RVn]
Selectivity ([1]; CC50/EC50, PSC-human lung cells): >454 | EC90 ([1]; PSC-human lung cells, MOI 0.01, 48 hours): 700 nM | EC50 ([1]; PSC-human lung cells, MOI 0.01, 48 hours, listed as ODE-P-RVn): 220 nM | CC50 (Calu-3 cells): 98700 nM | EC50 (HCoV-229E): 410 ± 12 nM | EC90 (HCoV-229E): 840 ± 95 nM | CC50 (VERO E6 cells [2]): > 100000 nM | CC50 (Huh7.5 cells [3]): > 100000 nM | CC50 (VERO E6 cells [4]): > 100000 nM | Selectivity ([5]; CC50/EC50, Calu-3 cells): 290 | EC90 ([5]; Calu-3 cells, MOI 0.01, 48 hours): 640 nM | EC50 ([5]; Calu-3 cells, MOI 0.01, 48 hours, listed as ODE-P-RVn): 340 nM | CC50 (Huh7.5 cells [6]): > 20000 nM | CC50 (PSC-human lung cells): > 100000 nM | Selectivity [7]: >333 | EC50 [7]: 300 nM | EC90 [7]: 330 nM | CC50 (MRC-5 cells): > 50000 nM | CC50 (Caco-2 cells): > 100000 nM | Selectivity Index ([8]; CC50/EC50, Vero E6): >143 | EC50 [8, 25]: 350 nM | EC90 [8, 25]: 530 nM | Selectivity ([9]; CC50/EC50, Caco-2 cells): >129 | EC50 [9, 26]: 770 nM | EC90 [9, 26]: 1250 nM | CC50 (VERO E6 cells [10]): > 50000 nM | Selectivity [11]: >526 | EC50 [11, 27]: 190 nM | EC90 [11, 27]: 370 nM | EC50 ([11]; Huh7.5 cells, MOI 0.01, 48 hours, qRT-PCR (Example 7), listed as ODE-P-RVn): 190 nM | Selectivity ([12]; CC50/EC50, Vero E6): >212 | EC50 [12, 28]: 470 ± 180 nM | EC90 [12, 28]: 1100 ± 800 nM | times more active than RDV ([12]; based on the EC50 values, Vero E6): 9.8

CCCCCCCCCCCCCCCCCCOCCOP(=O)(O)CO[C@H](C)Cn1cnc2c(N)ncnc21 [ODE-TFV]
T1/2 of TFVpp (HFF cells): 1.2 | Tmax of TFVpp (HFF cells): 0 h | EC50 (HIV-1 [13]): 1.1 nM | ED90 (HIV-1 [13]; reference line in FIG. 12B): 6.3 nm/mL | time with plasma levels at a virally significant level [14]: 28 days | CC50 (human PBMCs): 1280 nM | EC90 (HIV-1 [15]): 10 nM

CCC(CC)COC(=O)[C@H](C)N[P@](=O)(OC[C@H]1O[C@@](C#N)(c2ccc3c(N)ncnn23)[C@H](O)[C@@H]1O)Oc1ccccc1 [RDV, Remdesivir, reference compound]
levels of remdesivir triphosphate (RVn-TP) (VERO E6 cells [16]): below the level of quantification | CC50 (in vitro): > 50000 nM | time persisting at virologically significant levels in plasma [17]: less than 2 hours | CC50 at 48.5 h [18]: > 100000 nM | CC50 at 48.5 h [19]: > 100000 nM | Selectivity [7]: 89.4 | EC50 [7, 29]: 1130 nM | EC90 [7, 29]: 7050 nM | CC50 at 48.5 h [20]: > 100000 nM | T1/2 ex vivo in human plasma [21]: 1.15 h | CC50 [22]: > 50000 nM | Selectivity [11]: 253

Octadecyloxyethyl benzyl tenofovir [ODE-Bn-TFV]
T1/2 of TFVpp (HFF cells): 3.7 | Tmax of TFVpp (HFF cells): 48 h | adverse effects [23]: no adverse effects except for some transient swelling at the injection sites | EC50 (HIV-1 [13]): 1.7 nM | ED90 (HIV-1 [13]; reference line in FIG. 12A): 10.9 ng/mL | Selectivity Index (HIV-1 [13]; variation of the diester substituent of ODE-TFV): 5130 | initial plasma values ([14]; rat, in vivo): ~100 ng/mL | time with plasma levels at a virally significant level [14]: 28 days | clinical observations, metabolic panels, CBCs [24]: no clinical observations of significance | CC50 (human PBMCs): 8720 nM
